We go through eight compounds from patent US20240389596A1, “INSECT, ACARINA AND NEMATODE PEST CONTROL” (priority 2021, published 2024).

This data set has as its system Spodoptera littoralis (Egyptian cotton leaf worm). The experiment in a line: Spodoptera littoralis (Egyptian cotton leaf worm) feeding/contact activity assay on cotton leaf discs. It is filed as in vivo. As to conditions: for Mortality (%) Observed (%): single active ingredient, L1 larvae, 3 days after infestation; for Mortality (%) Expected (%): component B alone, value printed in the Expected column. The source says:
A synergistic effect exists whenever the action of an active ingredient combination is greater than the sum of the actions of the individual components. The action to be expected E for a given active ingredient combination obeys the so-called COLBY formula and can be calculated as follows (COLBY, S. R. “Calculating synergistic and antagonistic responses of herbicide combination”. Weeds, Vol. 15, pages 20-22 1967):
ppm=milligrams of active ingredient (a.i.) per liter X=% action by first active ingredient using p ppm of the active ingredient Y=% action by second active ingredient using q ppm of the active ingredient.
According to Colby, the expected (additive) action of active ingredients A+B using p+q ppm of active ingredient is
If the action actually observed O is greater than the expected action E, then the action of the combination is super-additive, i.e. there is a synergistic effect. In mathematical terms, synergism corresponds to a positive value for the difference of (O-E). In the case of purely complementary addition of activities (expected activity), said difference (O-E) is zero. A negative value of said difference (O-E) signals a loss of activity compared to the expected activity.
The synergistic biological activity of combinations of component (A) and component (B) as disclosed herein was assessed using a Spodoptera littoralis (Egyptian cotton leaf worm) feeding/contact activity assay. Cotton leaf discs were placed onto agar in 24-well microtiter plates and sprayed with aqueous test solutions prepared from 10′000 ppm DMSO stock solutions. After drying the leaf discs were infested with L1 larvae. The samples were assessed for mortality 3 days after infestation.

For the compound `O=C(Nc1ccc(F)c(NC(=O)C(F)F)c1F)c1cc(NC(=O)[C@H]2[C@H](c3cc(C(F)(F)F)cc(C(F)(F)F)c3)C2(Cl)Cl)ccc1Cl` [A-1], the “Mortality (%) Observed (%)” value reads like this: ([AI] 0.016 mg/L) 0%; ([AI] 0.031 mg/L) 0%; ([AI] 0.062 mg/L) 0%; ([AI] 0.125 mg/L) 0%; ([AI] 0.25 mg/L) 80%; ([AI] 0.5 mg/L) 100%.
`C[n+]1c([O-])c(-c2ccccc2)c(=O)n2c1SC[C@@H]2c1cnc(Cl)s1` [B-4, fenmezoditiaz]: the “Mortality (%) Observed (%)” value ([AI] 15.625 mg/L) came to 0%, the “Mortality (%) Observed (%)” value ([AI] 31.25 mg/L) amounted to 0% and the “Mortality (%) Observed (%)” value ([AI] 62.5 mg/L) is 0%.
Take `CCS(=O)(=O)c1cccnc1-c1cnc(OCC(F)(F)C(F)(F)F)cn1` [B-10, 2-(3-ethylsulfonyl-2-pyridyl)-5-(2,2,3,3,3-pentafluoropropoxy)pyrazine]: the “Mortality (%) Observed (%)” value is, setting by setting: ([AI] 0.625 mg/L) 0%; ([AI] 1.25 mg/L) 10%; ([AI] 2.5 mg/L) 50%; ([AI] 5 mg/L) 100%; ([AI] 10 mg/L) 100%.
Regarding `CCN(C(=O)c1cnn(C(C)C(C)C)c1C)c1ccnnc1` (stereo not drawn) [B-17, dimpropyridaz], the “Mortality (%) Observed (%)” value by setting is: ([AI] 15.625 mg/L) 0%; ([AI] 31.25 mg/L) 0%; ([AI] 62.5 mg/L) 0%; ([AI] 125 mg/L) 0%.
Take `Cc1cc(Cl)cc(C)c1C1=C(O)C2(CCC3(CC2)OCCO3)NC1=O` [B-18, spidoxamat]: the “Mortality (%) Expected (%)” value is, setting by setting: ([AI] 7.812 mg/L) 0%; ([AI] 15.625 mg/L) 0%; ([AI] 31.25 mg/L) 0%.
On to `O=c1c(-c2cccc(C(F)(F)F)c2)c([O-])[n+](Cc2cncnc2)c2ccccn12` [B-42, triflumezopyrim], for which the “Mortality (%) Observed (%)” value ([AI] 15.625 mg/L) is 0%; the “Mortality (%) Observed (%)” value ([AI] 31.25 mg/L) turned out to be 0%; the “Mortality (%) Observed (%)” value ([AI] 62.5 mg/L) was found to be 0%; the “Mortality (%) Observed (%)” value ([AI] 125 mg/L) was determined as 20%; the “Mortality (%) Observed (%)” value ([AI] 250 mg/L) is given as 20%.
As to `CNC(=O)c1cc(Cl)cc(C)c1NC(=O)c1cc(Br)nn1-c1ncccc1Cl` [B-46, chlorantraniliprole], the “Mortality (%) Observed (%)” value worked out at 0% ([AI] 0.062 mg/L), 0% ([AI] 0.125 mg/L), 0% ([AI] 0.25 mg/L) and 100% ([AI] 0.5 mg/L).
Take `CC(c1ccc(C(F)(F)F)nc1)S(C)(=O)=NC#N` (stereo not drawn) [B-55, sulfoxaflor]: the “Mortality (%) Observed (%)” value reads like this: ([AI] 62.5 mg/L) 0%; ([AI] 125 mg/L) 0%; ([AI] 250 mg/L) 10%.
